Experimental data reported in patent publication US6271238A, “Acetamide derivatives and protease inhibitors” (Nippon Kayaku Kabushiki Kaisha, priority 1996, dated 2001).
Structures can show the parent of a compound that is named as a salt.

Assays:
guinea pig eosinophils = assay: Inhibitory action on eosinophils (release of active oxygen from guinea pig eosinophils); assay type: cell-based; details: Cavia porcellus, Eosinophil, 5 min, PAF, luminol chemiluminescence for 5 minutes
Method: Inhibitory activity on eosinophil activation
(A) Preparation of eosinophils
Polymyxin B (produced by Sigma) was administered intraperitoneally into a guinea pig (Hartley, male, 6-week-old) at a dosage of 1 mg once every week for 6 to 8 weeks. After the final administration of polymyxin B. 50 ml of PBS (phosphate-buffered saline) was injected into the intraperitoneal cavity of the guinea pig, and cells were recovered. The cells were centrifuged at 800 rpm for 5 minutes and the abdomen infiltration cells were collected as precipitates and then suspended in 1 ml of 40% Ficoll (40% Ficoll (produced by Pharmacia), HBSS (Hanks' balanced salt solution) and layered on a Ficoll discontinuous density gradient (40 to 90%). It was centrifuged at 1500 rpm for 40 minutes, and the eosinophil fraction was recovered. In this operation, eosinophils of 99% or more purity were usually obtained. Further, the cells were washed twice with RPMI 1640 medium (10% BSA (bovine serum albumin available from Boehringer Mannheim), suspended again at a predetermined density, and used in the objective experiment.
(B) Inhibitory action on eosinophils (inhibitory action on release of active oxygen from guinea pig eosinophils)
The eosinophils (99% or more purity) obtained by the Ficoll density gradient method in (A) above were suspended at a cell density of 4×10^5 in a buffer solution (0.136 M sodium chloride, 2.7 mM potassium chloride, 1.8 mM calcium chloride, 1.0 mM magnesium chloride, 11.9 mM sodium hydrogen carbonate, 5.5 mM D-glucose, 5.0 mM HEPES, 0.36 mM sodium dihydrogen phosphate, pH 7.2). Each drug (2 μl) and 180 μl of the cell suspension were put to a 96-well multi-well plate (for chemiluminescence measurement, white type) previously kept at 37° C., and incubated at 37° C. for 10 minutes. After incubation, 20 μl of PAF (platelet-activating factor) (5×10^-6 M) and 20 μl of a luminol solution were added to it and immediately examined for its chemiluminescence (Luminoskan Labosystem). The chemiluminescence for 5 minutes were measured to calculate 50% inhibitory concentration (IC50: μM).

rat mast cells = assay: Inhibitory action on degranulation of mast cells (histamine release from rat mast cells); assay type: cell-based; details: Mast cell; rat peritoneal mast cells, anti-IgE antibody, 37° C.
Method: Inhibitory action on degranulation of mast cells
(A) Preparation of mast cells
30 ml of mast cell buffer solution (150 mM sodium chloride, 3.7 mM potassium chloride, 3.0 mM disodium hydrogen phosphate, 3.5 mM sodium dihydrogen phosphate, 5.6 mM dextrose, pH 7.0) was injected into the abdomen of a rat(SD, male, 8 to 10 week-old), and intra peritoneal cavity cells were recovered and centrifuged at 800 rpm for 5 minutes, and then the abdomen infiltration cells were recovered as precipitates. The precipitated cells were further washed twice with the mast cell buffer solution, suspended again at a predetermined density, and used in the objective experiment.
(B) Inhibitory action on degranulation of mast cells (inhibitory action on histamine release from rat mast cells)
The mast cells obtained in the procedure in (A) above were suspended at 1×10^5 cells in the mast cell buffer solution and kept at 37° C. 2 μl of each drug and 200 μl of the cell suspension were added into a 1.5 ml test tube previously kept at 37° C. and incubated at 37° C. for 10 minutes. After incubation, 2 μl anti-IgE antibody (BETHYL Lab. Inc.) was added to it and further incubated at 37° C. for 15 minutes. After the end of the reaction, the reaction mixture was immediately cooled on ice and centrifuged at 4° C. at 4000 rpm for 5 minutes, and then the supernatant was stored. Histamine in the supernatant was modified with ortho-phthalaldehyde and measured by high performance liquid chromatography to determine 50% inhibitory concentration (IC50: μM).

SMILES | IC50 (guinea pig eosinophils) [µM] | IC50 (rat mast cells) [µM]
CCCCC(=O)C(=O)C(Cc1ccccc1)NC(=O)Cn1c(-c2ccccc2)ncc(N)c1=O (stereo not drawn) [Compound 44] | 18 | 14
Nc1cnc(-c2ccccc2)n(CC(=O)NC(Cc2ccccc2)C(=O)C(=O)CCCc2ccccc2)c1=O (stereo not drawn) [Compound 40] | 5.6 | 1.8
CC(=O)C(=O)C(Cc1cccc(F)c1)NC(=O)Cn1c(-c2ccccc2)ncc(N)c1=O (stereo not drawn) [Compound 52, 2-(5-Amino-6-oxo-2-phenyl-1,6-dihydropyrimidine-1-yl)-N-{1-(3-fluorophenyl)methyl-2,3-dioxo}butylacetamide] | 26 | 50
CCOC(=O)CCCC(=O)C(=O)C(Cc1cccc(F)c1)NC(=O)Cn1c(-c2ccccc2)ncc(N)c1=O (stereo not drawn) [Compound 54] | 62 | 35
Nc1cnc(-c2ccccc2)n(CC(=O)NC(Cc2ccccc2)C(=O)C(=O)CCCn2ccccc2=O)c1=O (stereo not drawn) [Compound 73, 2-(5-Amino-6-oxo-2-phenyl-1,6-dihydropyrimidine-1-yl)-N-{2,3-dioxo-1-phenylmethyl-6-(2-oxo-1,2-dihydropyridine-1-yl)}hexylacetamide hydrochloride] | 3 | –
